Data from patent US20110269838A1, “NOVEL PROCESSES AND PURE POLYMORPHS” (priority 2008, published 2011).

Assay: Polymorphic stability on storage
Type: physicochemical
Conditions: kept at 40° C.±2° C. and relative humidity 75%±5% for 6 months; samples prepared in examples 1 to 5

O=C(CCCCCCC(=O)Nc1ccccc1)NO [crystalline vorinostat form I, N-hydroxy-N′-phenyl-octanediamide]
polymorphic stability (conversion over time to other polymorphs): no conversion over time to other polymorphs
